Publication PMC10923054, “Antiplasmodial peptaibols act through membrane directed mechanisms” (Cell Chemical Biology, 2024)
Square brackets hold non-standard residues; d marks the D form. Peptide text beside a SMILES is read from it. Phe(ol) = N[C@H](CO)Cc1ccccc1; Leu(ol) = CC(C)C[C@H](N)CO; dIva = CC[C@@](C)(N)C(=O)O; Aib = CC(C)(N)C(=O)O

What was measured:
[1] = tested on: HepG2 cells; assay: HepG2 cytotoxicity assay (MTS); type: cell-based, H. sapiens; details: for EC50: 48 h, MTS, absorbance 490 nm, highest concentration 25 μM, mean ± SEM, biological triplicate; for cytotoxicity in HepG2: highest concentration tested 25 μM
Procedure: HepG2 cells are grown at 37°C in DMEM with 10% FBS, 1% Antibiotic/Antimycotic, 0.3% NaHCO3, 5 mM HEPES pH 7.4, and 2 mM L-glutamine as needed in an atmosphere containing 5% CO2.
The cytotoxicity assay was performed as reported previously.[35] HepG2 cells were seeded at ∼2,250 cells per well 24 h prior to compound addition. Cells were then incubated for an additional 48 h prior to the addition of MTS and absorbance reading at 490 nm on Synergy Neo2 multimode reader (BioTek, Winsooki, VT). Cytotoxicity EC50 values were determined using CDD Vault (https://www.collaborativedrug.com/).

[2] = tested on: P. falciparum Dd2; set-up: method as in PMID: 33565879; details: asynchronous culture, 1% parasitemia, 1% hematocrit, 72 h, SYBR Green I; mean ± SEM, biological triplicate; ref PMID: 33565879; cited from earlier work
Text: Arrow length represents correlation strength. Arrow direction indicates positive/negative correlation. Peptaibols color-coded based on type. See also Figure S1. […] Values represent mean ± SEM. Resistance index (RI) = Dd2 EC50/3D7 EC50, Selectivity index (SI) = HepG2 EC50/Dd2 EC50.

[3] = tested on: P. falciparum asexual blood stage parasites grown in 0.5% Albumax II; assay: Antiplasmodial activity with Albumax II media; type: cell-based; details: RPMI with 0.5% Albumax II; mean ± SEM from 3 biological replicates
Procedure: Asexual blood stage parasites grown in the Chakrabarti laboratory were cultured based on a protocol by Trager and Jensen[57] with some modifications.[35] […] For comparison screening using serum vs Albumax II, culture media was changed from RPMI with 0.5% Albumax II to RPMI with 10% human serum and maintained for a minimum of 2 weeks prior to assay use.
Inhibitor EC50 determination in 3D7 and Dd2 was performed as discussed in,[35] based on established protocols.[60] Assays utilized asynchronous culture at 1% parasitemia, 1% hematocrit. Culture was incubated with compound dilutions for 72 h followed by freezing at −80°C to promote lysis, then thawing and incubation for 45 min–1 h with 1× SYBR Green I in a lysis buffer (20 mM Tris-HCL, 0.08% saponin, 5 mM EDTA, and 0.8% Triton X-100). Fluorescence was read 485 nm excitation, 530 nm emission on a Synergy Neo2 multimode reader (BioTek Winsooki, VT) and EC50 curves were generated using CDD Vault (https://www.collaborativedrug.com/).

[4] = tested on: PbLuc (P. berghei ANKA GFP-Luc-SMcon sporozoites in HepG2-A16-CD81 cells); type: cell-based; details: 48 h after sporozoite addition, luciferase; mean ± SEM of 3 biological replicates; read-out: PbLuc EC50 (P. berghei liver stage)
Procedure: The liver stage was performed as discussed in.[61] Liver-stage inhibitory activity was evaluated in HepG2-A16-CD81 cells and using P. berghei sporozoites (P. berghei ANKA GFP-Luc-SMcon) freshly obtained by dissecting salivary glands of infected A. stephensi mosquitoes. Cells were first seeded in 1536-well plates (Greiner Bio) containing 50 nL of test and control compounds dissolved in DMSO and incubated for 24 h. Sporozoites were then added to each well at a density of 1 × 10^3 cells per well and kept at 37°C for 48 h. Afterwards, luciferin reagent (Promega BrightGlo) was added to each well, and luciferase activity was detected using a Perkin Elmer Envision plate. As a counter screen, HepG2-A16-CD81 cells were seeded as above and exposed to drug in the absence of sporozoites. Viability was evaluated by adding Promega CellTiterGlo® followed by luminescence measurement using a Perkin Elmer Envision plate reader. IC50 values were determined using CDD vault (https://www.collaborativedrug.com/).

[5] = tested on: Dd2; assay: Cross resistance screening (1536-well SYBR Green I), parental line; type: cell-based, P. falciparum; details: Winzeler laboratory cross resistance screen, 0.3% parasitemia, 2.5% hematocrit, 72 h, mean ± SEM of 3 biological replicates
Procedure: Parasites grown in the Winzeler laboratory for screening and drug selections were maintained in RPMI 1640 medium supplemented with 0.25% Albumax I, 26 mM sodium bicarbonate, 0.1 mM hypoxanthine, and […] gentamicin. Human O+ whole blood obtained from the Blood Bank of The Scripps Research Institute was used for cultivation (human subjects IRB number: 125933). Blood-stage cultures were kept at 37°C with 5% CO2, 3% O2, and 92% N2. Monitoring of parasitemia and parasite morphology was performed using microscopic evaluation of thin blood smears that were first fixed with methanol, and then stained with Giemsa.
Cross resistance screening was performed with 0.3% parasitemia, 2.5% hematocrit, dispensed into 1536-well black, clear bottom plates with pre-spotted compound using a MultiFloTM Microplate dispenser (BioTek) at a volume of 8 μL/well. Plates where then incubated at 37°C for 72 h, after which 10× SYBR Green I (Invitrogen) in a lysis buffer (20 mM Tris/HCl, 5 mM EDTA, 0.16% (w/v) saponin, 1.6% (v/v) […]) was then added using a MultiFloTM Microplate dispenser (BioTek) at a volume of 2 μL/well. After 24 h incubation at room temperature, viability was measured via fluorescence using the EnVision® Multilabel Reader (PerkinElmer) (485 nm excitation, 530 nm emission). IC50 values were determined in CDD vault (https://www.collaborativedrug.com/).

| SMILES | EC50 [1] [nM] | cytotoxicity in HepG2 [1] | EC50 [2] [nM] | EC50 [3] [nM] | EC50 [4] [nM] | EC50 [5] [nM] |
| --- | --- | --- | --- | --- | --- | --- |
| CC(=O)NC(C)(C)C(=O)N1CCC[C@H]1C(=O)NC(C)(C)C(=O)N[C@@H](C)C(=O)NC(C)(C)C(=O)N[C@@H](C)C(=O)N[C@@H](CCC(N)=O)C(=O)NC(C)(C)C(=O)N[C@H](C(=O)NC(C)(C)C(=O)NCC(=O)N[C@@H](CC(C)C)C(=O)NC(C)(C)C(=O)N1CCC[C@H]1C(=O)N[C@H](C(=O)NC(C)(C)C(=O)NC(C)(C)C(=O)N[C@@H](CCC(=O)O)C(=O)N[C@@H](CCC(N)=O)C(=O)N[C@H](CO)Cc1ccccc1)C(C)C)C(C)C [Alamethicin, reference compound] (Ac-[Aib]P[Aib]A[Aib]AQ[Aib]V[Aib]GL[Aib]PV[Aib][Aib]EQ[Phe(ol)]; N-terminus assumed) | 6600 ± 100 | Minor cytotoxicity | – | – | – | – |
| CC[C@H](C)[C@H](NC(=O)[C@H](C)NC(=O)[C@@H]1CCCN1C(=O)C(C)(C)NC(=O)[C@H](CC(C)C)NC(=O)[C@H](CCC(N)=O)NC(=O)[C@@](C)(CC)NC(C)=O)C(=O)NC(C)(C)C(=O)N1CCC[C@H]1C(=O)N[C@](C)(CC)C(=O)N[C@@H](CC(C)C)C(=O)NC(C)(C)C(=O)N1CCC[C@H]1C(=O)N[C@H](CO)CC(C)C [HZ NPDG-H, harzianin NPDG H] (Ac-[dIva]QL[Aib]PAI[Aib]P[dIva]L[Aib]P[Leu(ol)]) | > 25000 | no cytotoxicity | 330 ± 90 | 330 ± 90 | – | – |
| CC[C@H](C)[C@H](NC(=O)[C@H](CC(C)C)NC(=O)[C@H](CCC(N)=O)NC(=O)[C@@](C)(CC)NC(C)=O)C(=O)NC(C)(C)C(=O)N1CCC[C@H]1C(=O)N[C@](C)(CC)C(=O)N[C@@H](CC(C)C)C(=O)NC(C)(C)C(=O)N1CCC[C@H]1C(=O)N[C@H](CO)CC(C)C [HZ NPDG-I, harzianin NPDG I] (Ac-[dIva]QLI[Aib]P[dIva]L[Aib]P[Leu(ol)]) | > 25000 | no cytotoxicity | 100 | 100 ± 10 | 2700 | 13 ± 6 |
| CC[C@@](C)(NC(=O)C(C)(C)NC(=O)[C@H](CC(C)C)NC(=O)[C@@H]1CCCN1C(=O)C(C)(C)NC(=O)[C@H](CC(C)C)NC(=O)CNC(=O)C(C)(C)NC(=O)[C@@H](NC(=O)C(C)(C)NC(=O)[C@H](CCC(N)=O)NC(=O)C(C)(C)NC(=O)C(C)(C)NC(=O)[C@H](C)NC(=O)CNC(=O)C(C)(C)NC(C)=O)C(C)C)C(=O)N[C@@H](CCC(N)=O)C(=O)N[C@H](CO)CC(C)C [TC HA-II, trichorzin HA II] (Ac-[Aib]GA[Aib][Aib]Q[Aib]V[Aib]GL[Aib]PL[Aib][dIva]Q[Leu(ol)]) | 13000 ± 2000 | Minor cytotoxicity | – | – | – | – |
